From patent US20240360134A1, “PYRAZOLOPYRIMIDINES AND THEIR USES AS PDGFR INHIBITORS” (priority 2021, published 2024)

Columns and labels:
VEGFR2, unphosphorylated = VEGFR2, unphosphorylated (Homo sapiens (Human), UniProt P35968); experiment: VEGFR ADP GLO assay; format: biochemical; details: 5 nM VEGFR2, 1.2 mM ATP, 1 mg/mL Srctide, 180 min
In short: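 Luminescent ADP detection after a 180-min room-temperature reaction of srctide plus ATP (2 mg/mL and 2.4 mM in 2× mix) in pH 7.5 HEPES buffer with DTT, Pluronic and ovalbumin. Compounds, 11 points from 10 µM, first pre-incubated 30 min with enzyme (2× mix 10 nM). IC50s fitted after scaling between DMSO and 1 µM TAK-593 controls.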

[1] = target: Tb-labeled inactive PDGFRβ (Homo sapiens (Human), UniProt P09619); experiment: biochemical; format: binding; details: read-out: PDGFR Lantha IC50
Tb-labeled inactive PDGFRβ, sequence (P09619 whole entry, looked up): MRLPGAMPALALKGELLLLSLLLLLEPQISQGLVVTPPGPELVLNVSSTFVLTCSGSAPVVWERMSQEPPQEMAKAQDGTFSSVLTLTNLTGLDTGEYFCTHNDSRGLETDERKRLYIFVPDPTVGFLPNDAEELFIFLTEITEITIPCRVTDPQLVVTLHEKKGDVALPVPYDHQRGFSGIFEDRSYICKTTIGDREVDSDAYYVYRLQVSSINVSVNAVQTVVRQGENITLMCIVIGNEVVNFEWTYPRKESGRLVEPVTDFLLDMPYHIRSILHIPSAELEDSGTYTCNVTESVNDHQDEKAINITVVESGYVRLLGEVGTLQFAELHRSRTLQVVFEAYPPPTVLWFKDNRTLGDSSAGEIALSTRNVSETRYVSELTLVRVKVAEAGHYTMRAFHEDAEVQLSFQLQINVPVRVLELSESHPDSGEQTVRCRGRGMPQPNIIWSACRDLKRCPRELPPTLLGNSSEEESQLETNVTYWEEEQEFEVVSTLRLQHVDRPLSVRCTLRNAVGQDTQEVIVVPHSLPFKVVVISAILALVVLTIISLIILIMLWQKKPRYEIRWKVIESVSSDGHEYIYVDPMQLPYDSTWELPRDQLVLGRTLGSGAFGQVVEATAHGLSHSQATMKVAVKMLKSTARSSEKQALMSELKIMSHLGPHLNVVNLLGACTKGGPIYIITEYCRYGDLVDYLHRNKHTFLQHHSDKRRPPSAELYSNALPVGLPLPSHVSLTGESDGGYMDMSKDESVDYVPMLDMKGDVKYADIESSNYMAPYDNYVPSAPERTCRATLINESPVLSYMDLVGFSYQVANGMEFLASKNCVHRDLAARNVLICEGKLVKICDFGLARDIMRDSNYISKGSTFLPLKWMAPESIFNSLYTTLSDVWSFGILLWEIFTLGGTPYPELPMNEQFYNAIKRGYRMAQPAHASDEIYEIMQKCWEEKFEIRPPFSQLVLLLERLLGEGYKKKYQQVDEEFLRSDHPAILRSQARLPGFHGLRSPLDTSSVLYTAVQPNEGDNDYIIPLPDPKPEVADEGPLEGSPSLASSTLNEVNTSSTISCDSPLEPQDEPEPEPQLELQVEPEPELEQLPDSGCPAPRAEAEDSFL

[2] = target: His6-TEV-PDGFRβ (557-1016) (Homo sapiens (Human), UniProt P09619); experiment: PDGFRβ HTRF Assay; format: biochemical; details: 800 μM ATP, 0.5 μM TK-substrate biotin peptide, 30 min pre-incubation, 3 hours reaction; read-out: PDGFR HTRF IC50
His6-TEV-PDGFRβ (557-1016), sequence (P09619 whole entry, looked up): as above

PDGFRβ = PDGFRβ (Rattus norvegicus (Rat), UniProt Q05030); experiment: PDGFRβ Cellular Assay (PDGFRb P-Y751 HTRF, PDGF-BB stimulated A10 cells); format: cell-based; details: A10 cells, 3 hours compound, 15 ng/mL PDGFbb for 10 minutes; read-out: PDGFR Cellular IC50
PDGFRβ, sequence (Q05030 whole entry, looked up): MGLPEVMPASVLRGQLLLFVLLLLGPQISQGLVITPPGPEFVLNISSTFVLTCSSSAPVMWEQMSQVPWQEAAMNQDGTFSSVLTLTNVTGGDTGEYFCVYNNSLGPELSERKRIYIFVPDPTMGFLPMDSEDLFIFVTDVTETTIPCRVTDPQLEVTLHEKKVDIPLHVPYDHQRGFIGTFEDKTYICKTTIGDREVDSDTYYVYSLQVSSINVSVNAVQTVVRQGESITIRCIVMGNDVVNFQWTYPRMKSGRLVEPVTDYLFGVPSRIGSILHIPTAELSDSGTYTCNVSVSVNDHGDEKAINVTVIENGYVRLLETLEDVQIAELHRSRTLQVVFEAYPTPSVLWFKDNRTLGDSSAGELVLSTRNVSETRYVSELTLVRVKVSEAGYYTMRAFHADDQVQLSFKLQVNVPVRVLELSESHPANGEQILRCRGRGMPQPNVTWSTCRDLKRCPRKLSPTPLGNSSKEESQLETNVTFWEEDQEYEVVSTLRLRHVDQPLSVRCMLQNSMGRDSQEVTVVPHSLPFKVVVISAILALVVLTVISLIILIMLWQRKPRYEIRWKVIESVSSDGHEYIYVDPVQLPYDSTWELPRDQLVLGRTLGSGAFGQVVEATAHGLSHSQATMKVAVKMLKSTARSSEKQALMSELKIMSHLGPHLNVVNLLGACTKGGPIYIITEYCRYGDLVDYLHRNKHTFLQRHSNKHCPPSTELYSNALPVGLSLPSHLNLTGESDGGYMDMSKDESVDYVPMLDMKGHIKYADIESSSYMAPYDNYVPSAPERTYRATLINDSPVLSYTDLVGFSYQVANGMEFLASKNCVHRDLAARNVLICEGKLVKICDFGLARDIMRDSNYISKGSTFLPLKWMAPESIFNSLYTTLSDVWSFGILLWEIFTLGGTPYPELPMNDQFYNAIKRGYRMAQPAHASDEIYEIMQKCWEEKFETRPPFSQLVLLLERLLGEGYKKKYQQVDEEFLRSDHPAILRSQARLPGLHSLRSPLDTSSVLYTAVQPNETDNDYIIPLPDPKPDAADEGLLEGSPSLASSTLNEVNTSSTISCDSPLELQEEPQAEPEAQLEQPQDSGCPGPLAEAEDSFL
In short: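 Rat A10 cells plated overnight were treated with compound for 3 h, stimulated with rat PDGF-BB (working stock 100 ng/mL in 10% FBS medium) for 10 min, then lysed.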

VEGFR2, unphosphorylated, sequence (P35968 whole entry, looked up): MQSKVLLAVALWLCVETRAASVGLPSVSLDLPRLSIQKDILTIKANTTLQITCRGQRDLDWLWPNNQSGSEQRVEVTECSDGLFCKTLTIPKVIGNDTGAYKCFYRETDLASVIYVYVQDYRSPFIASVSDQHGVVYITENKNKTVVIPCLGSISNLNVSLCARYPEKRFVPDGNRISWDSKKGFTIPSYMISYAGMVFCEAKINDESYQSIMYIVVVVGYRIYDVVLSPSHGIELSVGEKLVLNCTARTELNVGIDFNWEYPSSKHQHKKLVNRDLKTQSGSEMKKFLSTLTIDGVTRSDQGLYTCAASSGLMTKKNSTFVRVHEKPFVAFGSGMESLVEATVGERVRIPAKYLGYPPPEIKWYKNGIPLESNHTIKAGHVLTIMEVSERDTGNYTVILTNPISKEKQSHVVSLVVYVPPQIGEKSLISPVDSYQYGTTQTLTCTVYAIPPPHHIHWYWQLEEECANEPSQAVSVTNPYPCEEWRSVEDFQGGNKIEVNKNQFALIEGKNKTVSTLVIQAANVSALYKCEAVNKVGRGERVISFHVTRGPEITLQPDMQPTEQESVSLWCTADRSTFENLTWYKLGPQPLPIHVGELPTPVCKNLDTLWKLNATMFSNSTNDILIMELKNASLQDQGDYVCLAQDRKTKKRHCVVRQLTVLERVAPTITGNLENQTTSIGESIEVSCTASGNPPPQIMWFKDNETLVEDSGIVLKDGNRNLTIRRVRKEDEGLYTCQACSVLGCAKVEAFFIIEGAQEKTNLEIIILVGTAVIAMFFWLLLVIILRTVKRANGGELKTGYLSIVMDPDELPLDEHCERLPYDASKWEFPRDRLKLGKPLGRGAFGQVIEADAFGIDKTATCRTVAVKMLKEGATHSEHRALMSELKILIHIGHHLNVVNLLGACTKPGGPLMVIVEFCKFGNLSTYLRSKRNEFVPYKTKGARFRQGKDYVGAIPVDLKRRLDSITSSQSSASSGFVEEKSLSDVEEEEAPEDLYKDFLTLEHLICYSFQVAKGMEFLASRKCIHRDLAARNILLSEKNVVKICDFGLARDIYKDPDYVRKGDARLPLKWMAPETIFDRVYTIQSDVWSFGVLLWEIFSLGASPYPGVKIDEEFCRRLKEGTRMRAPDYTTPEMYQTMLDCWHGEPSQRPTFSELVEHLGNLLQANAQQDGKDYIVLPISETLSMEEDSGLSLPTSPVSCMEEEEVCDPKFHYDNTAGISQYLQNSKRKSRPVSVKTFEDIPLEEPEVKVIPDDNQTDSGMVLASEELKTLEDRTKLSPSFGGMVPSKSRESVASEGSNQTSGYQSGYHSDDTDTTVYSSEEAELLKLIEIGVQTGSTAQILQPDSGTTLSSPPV

With Cc1ccc(C(=O)NCCN2CCCC2(C)C)cc1Nc1nn(C)c2nc(Nc3cnn(C)c3)ncc12 [Example 66, N-(2-(2,2-dimethylpyrrolidin-1-yl)ethyl)-4-methyl-3-((1-methyl-6-((1-methyl-1H-pyrazol-4-yl)amino)-1H-pyrazolo[3,4-d]pyrimidin-3-yl)amino)benzamide] the IC50 (VEGFR2, unphosphorylated) was 1330 nM, the IC50 [1] was 2.3 nM and the IC50 [2] was 0.28 nM. It also gave an IC50 (PDGFRβ) of 3.4 nM.

CO[C@@H]1CCN(CC(=O)Nc2cnc(C)c(Nc3nn(C)c4nc(Nc5cnn(C)c5)ncc34)c2)C1 [Example 135, (R)-2-(3-methoxypyrrolidin-1-yl)-N-(6-methyl-5-((1-methyl-6-((1-methyl-1H-pyrazol-4-yl)amino)-1H-pyrazolo[3,4-d]pyrimidin-3-yl)amino)pyridin-3-yl)acetamide] was tested, and the IC50 (VEGFR2, unphosphorylated) was over 7500 nM, the IC50 [1] was 2.8 nM and the IC50 [2] was 0.41 nM. The IC50 (PDGFRβ) was 9.5 nM.

Cn1nc(Nc2cc(C(=O)NCCN3CCCC3(C)C)ccc2F)c2cnc(Nc3cncnc3)nc21 [Example 51, N-(2-(2,2-dimethylpyrrolidin-1-yl)ethyl)-4-fluoro-3-((1-methyl-6-(pyrimidin-5-ylamino)-1H-pyrazolo[3,4-d]pyrimidin-3-yl)amino)benzamide] was tested, and the IC50 (VEGFR2, unphosphorylated) was over 7500 nM, the IC50 [1] was 9 nM and the IC50 [2] was 0.87 nM. For the same compound, the IC50 (PDGFRβ) was 17.2 nM.

Cc1ncc(C(=O)NCCN2[C@H](C)CCC[C@@H]2C)cc1Nc1nn(C)c2nc(Nc3cncnc3)ncc12 [Example 14, N-(2-((2S,6R)-2,6-dimethylpiperidin-1-yl)ethyl)-6-methyl-5-((1-methyl-6-(pyrimidin-5-ylamino)-1H-pyrazolo[3,4-d]pyrimidin-3-yl)amino)nicotinamide] showed an IC50 (VEGFR2, unphosphorylated) of about 7130 nM, an IC50 [1] of 8.5 nM and an IC50 [2] of 0.89 nM. The IC50 (PDGFRβ) was 109 nM.

With Cc1ncc(C(=O)NCCN2C3CCCC2CCC3)cc1Nc1nn(C)c2nc(Nc3cnn(C)c3)ncc12 [Example 89, N-(2-(9-azabicyclo[3.3.1]nonan-9-yl)ethyl)-6-methyl-5-((1-methyl-6-((1-methyl-1H-pyrazol-4-yl)amino)-1H-pyrazolo[3,4-d]pyrimidin-3-yl)amino)nicotinamide] the IC50 (VEGFR2, unphosphorylated) was 4090 nM, the IC50 [1] was 2.8 nM and the IC50 [2] was 0.33 nM. It also gave an IC50 (PDGFRβ) of 33.3 nM.

“2-(3,3-dimethylazetidin-1-yl)-N-(6-methyl-5-((1-methyl-6-((1-methyl-1H-imidazol-4-yl)amino)-1H-pyrazolo[3,4-d]pyrimidin-3-yl)amino)pyridin-3-yl)acetamide [Example 141]” was tested, and the IC50 (VEGFR2, unphosphorylated) was over 7500 nM, the IC50 [1] was 12.5 nM and the IC50 [2] was 1.4 nM. It also gave an IC50 (PDGFRβ) of 9.4 nM.

Work on Cc1ncc(C(=O)NCCN2[C@H](C)COC[C@H]2C)cc1Nc1nn(C)c2nc(Nc3cnn(C)c3)ncc12 (relative stereo) [Example 94, N-(2-(trans-3,5-dimethylmorpholino)ethyl)-6-methyl-5-((1-methyl-6-((1-methyl-1H-pyrazol-4-yl)amino)-1H-pyrazolo[3,4-d]pyrimidin-3-yl)amino)nicotinamide] yielded an IC50 (VEGFR2, unphosphorylated) of 1170 nM, an IC50 [1] of 2.1 nM and an IC50 [2] of 0.33 nM. It also gave an IC50 (PDGFRβ) of 13.9 nM.

Cc1ncc(C(=O)NCCN2CCCC2(C)C)cc1Nc1nn(C)c2nc(Nc3ccnc(N4CCC(CCO)CC4)c3)ncc12 [Example 111, N-(2-(2,2-dimethylpyrrolidin-1-yl)ethyl)-5-((6-((2-(4-(2-hydroxyethyl)piperidin-1-yl)pyridin-4-yl)amino)-1-methyl-1H-pyrazolo[3,4-d]pyrimidin-3-yl)amino)-6-methylnicotinamide] gave an IC50 (VEGFR2, unphosphorylated) of over 7500 nM, an IC50 [1] of 5.1 nM and an IC50 [2] of 0.51 nM. For the same compound, the IC50 (PDGFRβ) was 106 nM.

Cc1ncc(C(=O)NCCN2CCCC2(C)C)cc1Nc1nn(C)c2nc(Nc3ccc(N)nc3)ncc12 [Example 32, 5-((6-((6-aminopyridin-3-yl)amino)-1-methyl-1H-pyrazolo[3,4-d]pyrimidin-3-yl)amino)-N-(2-(2,2-dimethylpyrrolidin-1-yl)ethyl)-6-methylnicotinamide] gave an IC50 (VEGFR2, unphosphorylated) of over 7500 nM, an IC50 [1] of 5.7 nM and an IC50 [2] of 0.54 nM. For the same compound, the IC50 (PDGFRβ) was 110 nM.

Cc1ncc(C(=O)NCCN2CCCC23CCC3)cc1Nc1nn(C)c2nc(Nc3cncnc3)ncc12 [Example 4, N-(2-(5-azaspiro[3.4]octan-5-yl)ethyl)-6-methyl-5-((1-methyl-6-(pyrimidin-5-ylamino)-1H-pyrazolo[3,4-d]pyrimidin-3-yl)amino)nicotinamide] showed an IC50 (VEGFR2, unphosphorylated) of over 7500 nM, an IC50 [1] of 3.2 nM and an IC50 [2] of 0.46 nM. It also gave an IC50 (PDGFRβ) of 14.5 nM.

Cc1ncc(C(=O)NCCN2CC3CCC2CC3)cc1Nc1nn(C)c2nc(Nc3cncnc3)ncc12 [Example 6, N-(2-(2-azabicyclo[2.2.2]octan-2-yl)ethyl)-6-methyl-5-((1-methyl-6-(pyrimidin-5-ylamino)-1H-pyrazolo[3,4-d]pyrimidin-3-yl)amino)nicotinamide] gave an IC50 (VEGFR2, unphosphorylated) of over 7500 nM, an IC50 [1] of 5.2 nM and an IC50 [2] of 0.59 nM. The IC50 (PDGFRβ) was 102 nM.

Compound Cc1ncc(NC(=O)CN2CC(C)(C)C2)cc1Nc1nn(C)c2nc(Nc3cnn(C)c3)ncc12 [Example 77, 2-(3,3-dimethylazetidin-1-yl)-N-(6-methyl-5-((1-methyl-6-((1-methyl-1H-pyrazol-4-yl)amino)-1H-pyrazolo[3,4-d]pyrimidin-3-yl)amino)pyridin-3-yl)acetamide] has an IC50 (VEGFR2, unphosphorylated) of 5110 nM, an IC50 [1] of 1.9 nM and an IC50 [2] of 0.24 nM. The IC50 (PDGFRβ) was 2.4 nM.

CC(=O)Nc1cncc(Nc2ncc3c(Nc4cc(C(=O)NCCN5CCCC5(C)C)cnc4C)nn(C)c3n2)c1 [Example 99, 5-((6-((5-acetamidopyridin-3-yl)amino)-1-methyl-1H-pyrazolo[3,4-d]pyrimidin-3-yl)amino)-N-(2-(2,2-dimethylpyrrolidin-1-yl)ethyl)-6-methylnicotinamide] gave an IC50 (VEGFR2, unphosphorylated) of over 7500 nM, an IC50 [1] of 5.9 nM and an IC50 [2] of 0.66 nM. The IC50 (PDGFRβ) was 137 nM.

Compound Cc1ncc(C(=O)NCCN2CCCC2(C)C)cc1Nc1nn(C)c2nc(Nc3ccnn3C)ncc12 [Example 157, N-(2-(2,2-dimethylpyrrolidin-1-yl)ethyl)-6-methyl-5-((1-methyl-6-((1-methyl-1H-pyrazol-5-yl)amino)-1H-pyrazolo[3,4-d]pyrimidin-3-yl)amino)nicotinamide] has an IC50 (VEGFR2, unphosphorylated) of over 7500 nM, an IC50 [1] of 32.9 nM and an IC50 [2] of 3.39 nM. The IC50 (PDGFRβ) was 110 nM.

Work on Cc1ccc(C(=O)NCCN2CCC3(CC3)C2)cc1Nc1nn(C)c2nc(Nc3cnn(C)c3)ncc12 [Example 67, N-(2-(5-azaspiro[2.4]heptan-5-yl)ethyl)-4-methyl-3-((1-methyl-6-((1-methyl-1H-pyrazol-4-yl)amino)-1H-pyrazolo[3,4-d]pyrimidin-3-yl)amino)benzamide] yielded an IC50 (VEGFR2, unphosphorylated) of 1660 nM, an IC50 [1] of 1.9 nM and an IC50 [2] of 0.22 nM. The IC50 (PDGFRβ) was 9.8 nM.

Work on Cc1ncc(C(=O)NCCN2CCCC2(C)C)cc1Nc1nn(C)c2nc(Nc3ccnc(N4CCOCC4)c3)ncc12 [Example 101, N-(2-(2,2-dimethylpyrrolidin-1-yl)ethyl)-6-methyl-5-((1-methyl-6-((2-morpholinopyridin-4-yl)amino)-1H-pyrazolo[3,4-d]pyrimidin-3-yl)amino)nicotinamide] yielded an IC50 (VEGFR2, unphosphorylated) of over 7500 nM, an IC50 [1] of 2.2 nM and an IC50 [2] of 0.38 nM. The IC50 (PDGFRβ) was 15.5 nM.

In the case of Cc1ncc(C(=O)NCCN2CCCC[C@H]2C)cc1Nc1nn(C)c2nc(Nc3cncnc3)ncc12 [Example 11, (R)-6-methyl-5-((1-methyl-6-(pyrimidin-5-ylamino)-1H-pyrazolo[3,4-d]pyrimidin-3-yl)amino)-N-(2-(2-methylpiperidin-1-yl)ethyl)nicotinamide], the IC50 (VEGFR2, unphosphorylated) is reported as about 6630 nM, the IC50 [1] is reported as 5.8 nM and the IC50 [2] is reported as 0.68 nM. For the same compound, the IC50 (PDGFRβ) was 68.8 nM.

In the case of COCCn1cc(Nc2ncc3c(Nc4cc(NC(=O)CN5CCCC5(C)C)cnc4C)nn(C)c3n2)cn1 [Example 125, 2-(2,2-dimethylpyrrolidin-1-yl)-N-(5-((6-((1-(2-methoxyethyl)-1H-pyrazol-4-yl)amino)-1-methyl-1H-pyrazolo[3,4-d]pyrimidin-3-yl)amino)-6-methylpyridin-3-yl)acetamide], the IC50 (VEGFR2, unphosphorylated) is reported as over 7500 nM, the IC50 [1] is reported as 1.7 nM and the IC50 [2] is reported as 0.34 nM. For the same compound, the IC50 (PDGFRβ) was 2.7 nM.

With Cc1ncc(C(=O)NCCN2CCCC2(C)C)cc1Nc1nn(C)c2nc(Nc3cncc(C(N)=O)c3)ncc12 [Example 29, 5-((6-((5-carbamoylpyridin-3-yl)amino)-1-methyl-1H-pyrazolo[3,4-d]pyrimidin-3-yl)amino)-N-(2-(2,2-dimethylpyrrolidin-1-yl)ethyl)-6-methylnicotinamide] the IC50 (VEGFR2, unphosphorylated) was over 10000 nM, the IC50 [1] was 6.6 nM and the IC50 [2] was 0.8 nM. The IC50 (PDGFRβ) was 5330 nM.

With Cc1ncc(NC(=O)CN2CCCC2)cc1Nc1nn(C)c2nc(Nc3cnn(C)c3)ncc12 [Example 138, N-(6-methyl-5-((1-methyl-6-((1-methyl-1H-pyrazol-4-yl)amino)-1H-pyrazolo[3,4-d]pyrimidin-3-yl)amino)pyridin-3-yl)-2-(pyrrolidin-1-yl)acetamide] the IC50 (VEGFR2, unphosphorylated) was over 7500 nM, the IC50 [1] was 2.1 nM and the IC50 [2] was 0.24 nM. For the same compound, the IC50 (PDGFRβ) was 3.2 nM.

COCCn1cc(Nc2ncc3c(Nc4cc(NC(=O)CN5CCCC56CCC6)cnc4C)nn(C)c3n2)cn1 [Example 132, N-(5-((6-((1-(2-methoxyethyl)-1H-pyrazol-4-yl)amino)-1-methyl-1H-pyrazolo[3,4-d]pyrimidin-3-yl)amino)-6-methylpyridin-3-yl)-2-(5-azaspiro[3.4]octan-5-yl)acetamide] gave an IC50 (VEGFR2, unphosphorylated) of over 7500 nM, an IC50 [1] of 2 nM and an IC50 [2] of 0.35 nM. For the same compound, the IC50 (PDGFRβ) was 3.2 nM.
